Experimental data taken from patent US8889676B2, “3-ureidoisoquinolin-8-yl derivatives” (Actelion Pharmaceuticals Ltd., priority 2011, dated 2014).
Values after ≈ are worked out from the molar mass of the structure shown.

Test system: S. pneumoniae ATCC 49619
Assay: Minimal inhibitory concentration (MIC) by broth microdilution (CLSI M7-A7)
Type: cell-based, Streptococcus pneumoniae
Conditions: Streptococcus pneumoniae, ATCC49619; cation-adjusted Mueller Hinton Broth supplemented with 3% (v/v) lysed horse blood; microdilution method
Description: Minimal inhibitory concentrations (MICs; mg/l) were determined in cation-adjusted MuellerHinton Broth (supplemented with 3% (v/v) lysed horse blood for testing Streptococcus pneumoniae) by a microdilution method following the description given in “Methods for Dilution Antimicrobial Susceptibility Tests for Bacteria that Grow Aerobically”, Approved standard, 7th ed., a Clinical and Laboratory Standards Institute (CLSI) Document M7-A7, Wayne, Pa., USA, 2006.

**Q.** `CCNC(=O)Nc1cc2c(-c3ccncc3)ccc(CNC(=O)OCCN3CCCC3)c2cn1` [Example 80, [3-(3-ethyl-ureido)-5-pyridin-4-yl-isoquinolin-8-ylmethyl]-carbamic acid 2-pyrrolidin-1-yl-ethyl ester] was tested. Which MIC did it give?
**A.** 8 µg/mL (≈ 17.3 µM)

**Q.** With `CCNC(=O)Nc1cc2c(-c3ccncc3)ccc(CNC(=O)OCCNC(=O)OC(C)(C)C)c2cn1` [Example 81, [3-(3-ethyl-ureido)-5-pyridin-4-yl-isoquinolin-8-ylmethyl]-carbamic acid 2-tert-butoxycarbonylamino-ethyl ester] as the compound, how does the MIC read?
**A.** 0.5 µg/mL (≈ 0.983 µM)

**Q.** `CCNC(=O)Nc1cc2c(-c3ccncc3)ccc(CNC(=O)OCCN(C)C(=O)OC(C)(C)C)c2cn1` [Example 82, tert-butyl (2-((((3-(3-ethylureido)-5-(pyridin-4-yl)isoquinolin-8-yl)methyl)carbamoyl)oxy)ethyl)(methyl)carbamate] was tested. Which MIC did it give?
**A.** 2 µg/mL (≈ 3.83 µM)

**Q.** `CCNC(=O)Nc1cc2c(-c3ccncc3)ccc(CNC(=O)OCCN3CCN(C(=O)OC(C)(C)C)CC3)c2cn1` [Example 83, tert-butyl 4-(2-((((3-(3-ethylureido)-5-(pyridin-4-yl)isoquinolin-8-yl)methyl)carbamoyl)oxy)ethyl)piperazine-1-carboxylate] was tested. Which MIC did it give?
**A.** 1 µg/mL (≈ 1.73 µM)

**Q.** `CCNC(=O)Nc1cc2c(-c3ccncc3)ccc(CNC(=O)OCC3CC3)c2cn1.Cl` [Example 84, [3-(3-ethyl-ureido)-5-pyridin-4-yl-isoquinolin-8-ylmethyl]-carbamic acid cyclopropylmethyl ester hydrochloride] was tested. Which MIC did it give?
**A.** 0.5 µg/mL

**Q.** `CCNC(=O)Nc1cc2c(-c3ccncc3)ccc(CNC(=O)OCCCN3CCCC3=O)c2cn1.Cl` [Example 85, [3-(3-ethyl-ureido)-5-pyridin-4-yl-isoquinolin-8-ylmethyl]-carbamic acid 3-(2-oxo-pyrrolidin-1-yl)-propyl ester hydrochloride] was tested. Which MIC did it give?
**A.** 1 µg/mL

**Q.** For `CCNC(=O)Nc1cc2c(-c3ccncc3)ccc(CNC(=O)OC[C@@H]3CCC(=O)N3)c2cn1.Cl` [Example 87, (S)-[3-(3-ethyl-ureido)-5-pyridin-4-yl-isoquinolin-8-ylmethyl]-carbamic acid 5-oxo-pyrrolidin-2-ylmethyl ester hydrochloride], which MIC is on record?
**A.** 0.25 µg/mL

**Q.** How did the MIC turn out when `CCNC(=O)Nc1cc2c(-c3ccncc3)ccc(CNC(=O)OCc3cncn3C)c2cn1.Cl` [Example 88, [3-(3-ethyl-ureido)-5-pyridin-4-yl-isoquinolin-8-ylmethyl]-carbamic acid 3-methyl-3H-imidazol-4-ylmethyl ester hydrochloride] was run?
**A.** 2 µg/mL

**Q.** How did the MIC turn out when `CCNC(=O)Nc1cc2c(-c3ccncc3)ccc(CNC(=O)OCCCN(C)C)c2cn1.Cl` [Example 89, [3-(3-ethyl-ureido)-5-pyridin-4-yl-isoquinolin-8-ylmethyl]-carbamic acid 3-dimethylamino-propyl ester hydrochloride] was run?
**A.** 8 µg/mL

**Q.** How did the MIC turn out when `CCNC(=O)Nc1cc2c(-c3ccncc3)ccc(CNC(=O)CCCO)c2cn1` [Example 90, N-[3-(3-ethyl-ureido)-5-pyridin-4-yl-isoquinolin-8-ylmethyl]-4-hydroxy-butyramide] was run?
**A.** 2 µg/mL (≈ 4.91 µM)

**Q.** Which MIC does the source give for `CCNC(=O)Nc1cc2c(-c3ccncc3)ccc(CNC(=O)OCCN3CCOCC3)c2cn1.Cl` [Example 91, [3-(3-ethyl-ureido)-5-pyridin-4-yl-isoquinolin-8-ylmethyl]-carbamic acid 2-morpholin-4-yl-ethyl ester hydrochloride] here?
**A.** 1 µg/mL

**Q.** `CCNC(=O)Nc1cc2c(-c3ccncc3)ccc(CNC(=O)OCCCN3CCCCC3)c2cn1.Cl` [Example 92, [3-(3-ethyl-ureido)-5-pyridin-4-yl-isoquinolin-8-ylmethyl]-carbamic acid 3-piperidin-1-yl-propyl ester hydrochloride] was tested. Which MIC did it give?
**A.** 4 µg/mL

**Q.** `CCNC(=O)Nc1cc2c(-c3ccncc3)ccc(CNC(=O)OCCN3CCNC3=O)c2cn1.Cl` [Example 93, [3-(3-ethyl-ureido)-5-pyridin-4-yl-isoquinolin-8-ylmethyl]-carbamic acid 2-(2-oxo-imidazolidin-1-yl)-ethyl ester hydrochloride] was tested. Which MIC did it give?
**A.** 8 µg/mL

**Q.** With `CCNC(=O)Nc1cc2c(-c3ccncc3)ccc(CNC(=O)OCCCOC)c2cn1.Cl` [Example 94, [3-(3-ethyl-ureido)-5-pyridin-4-yl-isoquinolin-8-ylmethyl]-carbamic acid 3-methoxy-propyl ester hydrochloride] as the compound, how does the MIC read?
**A.** 0.5 µg/mL

**Q.** Which MIC does the source give for `CCNC(=O)Nc1cc2c(-c3ccncc3)ccc(CNC(=O)CCCOC)c2cn1` [Example 95, N-[3-(3-ethyl-ureido)-5-pyridin-4-yl-isoquinolin-8-ylmethyl]-4-methoxy-butyramide] here?
**A.** 0.5 µg/mL (≈ 1.19 µM)

**Q.** For `CCNC(=O)Nc1cc2c(-c3ccncc3)ccc(CNC(=O)OCC(N)=O)c2cn1.Cl` [Example 96, [3-(3-ethyl-ureido)-5-pyridin-4-yl-isoquinolin-8-ylmethyl]-carbamic acid carbamoylmethyl ester hydrochloride], which MIC is on record?
**A.** 2 µg/mL

**Q.** For `CCNC(=O)Nc1cc2c(-c3ccncc3)ccc(CNC(=O)OCCN3C(=O)CCC3=O)c2cn1.Cl` [Example 97, [3-(3-ethyl-ureido)-5-pyridin-4-yl-isoquinolin-8-ylmethyl]-carbamic acid 2-(2,5-dioxo-pyrrolidin-1-yl)-ethyl ester hydrochloride], which MIC is on record?
**A.** 2 µg/mL

**Q.** Which MIC does the source give for `CCNC(=O)Nc1cc2c(-c3ccncc3)ccc(CNC(=O)OCCN3CCCCC3)c2cn1.Cl` [Example 98, [3-(3-ethyl-ureido)-5-pyridin-4-yl-isoquinolin-8-ylmethyl]-carbamic acid 2-piperidin-1-yl-ethyl ester hydrochloride] here?
**A.** 4 µg/mL

**Q.** `CCNC(=O)Nc1cc2c(-c3ccncc3)ccc(CNC(=O)OCC(C)C)c2cn1.Cl` [Example 99, [3-(3-ethyl-ureido)-5-pyridin-4-yl-isoquinolin-8-ylmethyl]-carbamic acid isobutyl ester hydrochloride] was tested. Which MIC did it give?
**A.** 0.5 µg/mL

**Q.** `CCNC(=O)Nc1cc2c(-c3ccncc3)ccc(CNC(=O)OCC[C@H]3CCCNC3)c2cn1.Cl` [Example 100, [3-(3-ethyl-ureido)-5-pyridin-4-yl-isoquinolin-8-ylmethyl]-carbamic acid (R)-2-piperidin-3-yl-ethyl ester hydrochloride] was tested. Which MIC did it give?
**A.** 8 µg/mL

**Q.** `CCNC(=O)Nc1cc2c(-c3ccncc3)ccc(CNC(=O)OC[C@H]3CC[C@H](CN)CC3)c2cn1.Cl` [Example 101, trans-[3-(3-ethyl-ureido)-5-pyridin-4-yl-isoquinolin-8-ylmethyl]-carbamic acid 4-(aminomethyl)-(cyclohexylmethyl) ester hydrochloride] was tested. Which MIC did it give?
**A.** 2 µg/mL

**Q.** For `CCNC(=O)Nc1cc2c(-c3ccncc3)ccc(CNC(=O)OCC[C@@H](O)CO)c2cn1.Cl` [Example 102, (R)-[3-(3-ethyl-ureido)-5-pyridin-4-yl-isoquinolin-8-ylmethyl]-carbamic acid 3,4-dihydroxy-butyl ester hydrochloride], which MIC is on record?
**A.** 1 µg/mL

**Q.** `CCNC(=O)Nc1cc2c(-c3ccncc3)ccc(CNC(=O)OCCC(=O)O)c2cn1` [Example 104, 3-((((3-(3-ethylureido)-5-(pyridin-4-yl)isoquinolin-8-yl)methyl)carbamoyl)oxy)propanoic acid] was tested. Which MIC did it give?
**A.** 8 µg/mL (≈ 18.3 µM)

**Q.** With `CCNC(=O)Nc1cc2c(-c3ccncc3)ccc(CNC(=O)OCCC(=O)OC)c2cn1.Cl` [Example 105, methyl 3-((((3-(3-ethylureido)-5-(pyridin-4-yl)isoquinolin-8-yl)methyl)carbamoyl)oxy)propanoate hydrochloride] as the compound, how does the MIC read?
**A.** 4 µg/mL

**Q.** With `CCNC(=O)Nc1cc2c(-c3ccncc3)ccc(CNC(=O)OCC#CCO)c2cn1` [Example 106, [3-(3-ethyl-ureido)-5-pyridin-4-yl-isoquinolin-8-ylmethyl]-carbamic acid 4-hydroxy-but-2-ynyl ester] as the compound, how does the MIC read?
**A.** 0.25 µg/mL (≈ 0.577 µM)

**Q.** For `CCNC(=O)Nc1cc2c(-c3ccncc3)ccc(CNC(=O)OCCO)c2cn1` [Example 107, [3-(3-ethyl-ureido)-5-pyridin-4-yl-isoquinolin-8-ylmethyl]-carbamic acid 2-hydroxy-ethyl ester], which MIC is on record?
**A.** 1 µg/mL (≈ 2.44 µM)

**Q.** `CCNC(=O)Nc1cc2c(-c3ccncc3)ccc(CNC(=O)OCC#CCN)c2cn1` [Example 109, [3-(3-ethyl-ureido)-5-pyridin-4-yl-isoquinolin-8-ylmethyl]-carbamic acid 4-amino-but-2-ynyl ester] was tested. Which MIC did it give?
**A.** 2 µg/mL (≈ 4.62 µM)

**Q.** How did the MIC turn out when `CCNC(=O)Nc1cc2c(-c3ccncc3)ccc(CNC(=O)OCCCN3CCOCC3)c2cn1` [Example 110, [3-(3-ethyl-ureido)-5-pyridin-4-yl-isoquinolin-8-ylmethyl]-carbamic acid 3-morpholin-4-yl-propyl ester] was run?
**A.** 2 µg/mL (≈ 4.06 µM)

**Q.** Which MIC does the source give for `CCNC(=O)Nc1cc2c(Cl)ccc(CNC(=O)OCCOC)c2cn1` [Example 111, [5-chloro-3-(3-ethyl-ureido)-isoquinolin-8-ylmethyl]-carbamic acid 2-methoxy-ethyl ester] here?
**A.** 0.5 µg/mL (≈ 1.31 µM)

**Q.** With `C#CCOC(=O)NCc1ccc(Cl)c2cc(NC(=O)NCC)ncc12` [Example 112, [5-chloro-3-(3-ethyl-ureido)-isoquinolin-8-ylmethyl]-carbamic acid prop-2-ynyl ester] as the compound, how does the MIC read?
**A.** 0.5 µg/mL (≈ 1.39 µM)

**Q.** For `CCNC(=O)Nc1cc2c(Cl)ccc(CNC(=O)OC(C)(C)C)c2cn1` [Example 113, [5-chloro-3-(3-ethyl-ureido)-isoquinolin-8-ylmethyl]-carbamic acid tert-butyl ester], which MIC is on record?
**A.** 1 µg/mL (≈ 2.64 µM)

**Q.** Which MIC does the source give for `CCNC(=O)Nc1cc2c(-c3ccncc3)ccc(CNC(=O)OCCOC)c2cn1` [Example 114, [3-(3-ethyl-ureido)-5-pyridin-4-yl-isoquinolin-8-ylmethyl]-carbamic acid 2-methoxy-ethyl ester] here?
**A.** 0.5 µg/mL (≈ 1.18 µM)

**Q.** `CCNC(=O)Nc1cc2c(-c3ccnc(N)c3)ccc(CNC(=O)OCCOC)c2cn1` [Example 115, [5-(2-amino-pyridin-4-yl)-3-(3-ethyl-ureido)-isoquinolin-8-ylmethyl]-carbamic acid 2-methoxy-ethyl ester] was tested. Which MIC did it give?
**A.** 2 µg/mL (≈ 4.56 µM)

**Q.** How did the MIC turn out when `CCNC(=O)Nc1cc2c(-c3cc(C)nc(C)c3)ccc(CNC(=O)OCCOC)c2cn1` [Example 116, [5-(2,6-dimethyl-pyridin-4-yl)-3-(3-ethyl-ureido)-isoquinolin-8-ylmethyl]-carbamic acid 2-methoxy-ethyl ester] was run?
**A.** 1 µg/mL (≈ 2.21 µM)
